Reference: article PMC8634379, “From the Design to the In Vivo Evaluation of Benzohomoadamantane-Derived Soluble Epoxide Hydrolase Inhibitors for the Treatment of Acute Pancreatitis” (Journal of Medicinal Chemistry, 2021)

Columns and labels:
CYP 1A2 = molecular target: T1, CYP 1A2 (Homo sapiens, UniProt P05177); assay: Cytochrome P450 inhibition, fluorescence detection; assay type: in vitro ADME; conditions: at 10 μM
T1 sequence (P05177 1-516): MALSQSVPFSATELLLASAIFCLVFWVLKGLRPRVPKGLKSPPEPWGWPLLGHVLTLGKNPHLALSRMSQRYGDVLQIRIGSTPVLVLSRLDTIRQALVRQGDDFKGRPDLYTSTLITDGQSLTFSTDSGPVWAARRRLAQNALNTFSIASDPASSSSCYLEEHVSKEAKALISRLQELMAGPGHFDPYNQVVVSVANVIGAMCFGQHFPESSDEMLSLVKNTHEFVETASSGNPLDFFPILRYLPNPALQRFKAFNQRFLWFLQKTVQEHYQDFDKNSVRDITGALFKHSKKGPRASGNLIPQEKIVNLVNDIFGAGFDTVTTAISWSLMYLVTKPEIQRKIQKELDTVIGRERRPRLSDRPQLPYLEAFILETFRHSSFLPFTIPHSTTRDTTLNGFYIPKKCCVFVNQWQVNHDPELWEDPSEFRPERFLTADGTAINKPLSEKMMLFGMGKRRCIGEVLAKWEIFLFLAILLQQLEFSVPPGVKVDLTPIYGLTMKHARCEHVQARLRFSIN

rat sEH = molecular target: T2, rat sEH (Rattus norvegicus, UniProt P80299); assay: sEH inhibition, fluorescent-based assay (CMNPC substrate); assay type: biochemical; conditions: purified recombinant enzyme, average of three replicates
T2 sequence (P80299 1-554): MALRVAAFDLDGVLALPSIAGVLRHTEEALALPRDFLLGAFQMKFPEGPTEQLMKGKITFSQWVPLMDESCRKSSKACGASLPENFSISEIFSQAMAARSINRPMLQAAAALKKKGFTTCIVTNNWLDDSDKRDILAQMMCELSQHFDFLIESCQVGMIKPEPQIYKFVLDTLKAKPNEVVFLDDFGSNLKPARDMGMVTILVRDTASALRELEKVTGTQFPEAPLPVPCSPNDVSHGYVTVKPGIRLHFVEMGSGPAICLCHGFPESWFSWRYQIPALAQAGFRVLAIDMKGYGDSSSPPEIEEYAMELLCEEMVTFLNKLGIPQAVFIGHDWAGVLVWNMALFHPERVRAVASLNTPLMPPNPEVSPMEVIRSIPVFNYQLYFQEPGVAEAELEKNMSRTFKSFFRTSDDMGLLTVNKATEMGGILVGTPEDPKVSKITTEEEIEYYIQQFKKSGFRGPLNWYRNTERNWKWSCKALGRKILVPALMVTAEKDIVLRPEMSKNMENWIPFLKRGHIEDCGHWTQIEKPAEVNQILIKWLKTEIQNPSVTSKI
Procedure: (§1) The IC50 values reported herein were determined using a fluorescent-based assay (CMNPC as substrate).[16] The fluorescent assay was used with purified recombinant human, mouse, or rat sEH proteins. The enzymes were incubated at 30 °C with the inhibitors ([I]final = 0.4–100,000 nM) for 5 min in 100 mM sodium phosphate buffer (200 μL, pH 7.4) containing 0.1 mg/mL of BSA and 1% of DMSO. The substrate (CMNPC) was then added ([S]final = 5 μM). […] Results were obtained by regression analysis from a linear region of the curve.

human sEH (hsEH) = molecular target: T3, human sEH (hsEH) (Homo sapiens, UniProt P34913); assay: as above; assay type: biochemical; conditions: purified recombinant enzyme, average of three replicates
T3 sequence (P34913 1-555): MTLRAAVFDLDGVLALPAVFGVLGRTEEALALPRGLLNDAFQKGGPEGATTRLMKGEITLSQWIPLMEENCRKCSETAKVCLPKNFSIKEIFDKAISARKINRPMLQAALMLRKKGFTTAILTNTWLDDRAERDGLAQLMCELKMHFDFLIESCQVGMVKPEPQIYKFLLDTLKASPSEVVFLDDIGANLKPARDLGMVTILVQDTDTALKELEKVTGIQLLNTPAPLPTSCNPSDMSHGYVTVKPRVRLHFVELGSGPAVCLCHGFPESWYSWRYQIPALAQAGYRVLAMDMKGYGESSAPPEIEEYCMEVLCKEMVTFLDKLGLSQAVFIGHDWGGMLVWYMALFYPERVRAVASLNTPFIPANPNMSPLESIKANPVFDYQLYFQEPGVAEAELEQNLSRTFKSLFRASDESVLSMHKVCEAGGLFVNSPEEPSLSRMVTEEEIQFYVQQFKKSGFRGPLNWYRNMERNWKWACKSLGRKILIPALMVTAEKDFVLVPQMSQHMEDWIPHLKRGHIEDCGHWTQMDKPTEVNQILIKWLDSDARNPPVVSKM
Procedure: as §1

murine sEH = molecular target: T4, murine sEH (Mus musculus, UniProt P34914); assay: as above; assay type: biochemical; conditions: purified recombinant enzyme, average of three replicates
T4 sequence (P34914 1-554): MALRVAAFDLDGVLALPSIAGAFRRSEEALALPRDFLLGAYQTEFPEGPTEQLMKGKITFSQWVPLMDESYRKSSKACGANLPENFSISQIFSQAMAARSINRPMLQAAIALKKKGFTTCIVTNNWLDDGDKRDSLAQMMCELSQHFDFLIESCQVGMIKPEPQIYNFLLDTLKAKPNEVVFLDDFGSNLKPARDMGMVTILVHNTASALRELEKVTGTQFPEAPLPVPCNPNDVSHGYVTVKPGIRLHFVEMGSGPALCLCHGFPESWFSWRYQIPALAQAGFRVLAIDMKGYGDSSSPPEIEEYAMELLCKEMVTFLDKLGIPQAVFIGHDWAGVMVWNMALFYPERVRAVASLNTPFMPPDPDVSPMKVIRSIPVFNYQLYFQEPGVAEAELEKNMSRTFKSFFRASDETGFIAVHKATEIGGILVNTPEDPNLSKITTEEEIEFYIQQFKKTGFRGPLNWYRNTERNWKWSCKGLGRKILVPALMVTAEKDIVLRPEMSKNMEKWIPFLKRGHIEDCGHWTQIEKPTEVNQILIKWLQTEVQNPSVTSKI
Procedure: as §1

IC50 (rat sEH)	IC50 (human sEH (hsEH))	IC50 (murine sEH)	Structure (SMILES)	CYP 1A2 inhibition (CYP 1A2)
0.4 nM	0.9 nM	9.9 nM	CC12CC3CC(NC(=O)N[C@H]4CC[C@H](Oc5ccc(C(=O)O)cc5)CC4)(CC(C1)c1ccccc13)C2 [Compound 20, 4-[((1r,4r)-4-(3-(9-Methyl-5,6,8,9,10,11-Hexahydro-7H-5,9:7,11-dimethanobenzo[9]annulen-7-yl)ureido)cyclohexyl)oxy]benzoic Acid]	1 ± 2%
–	–	–	O=C(NC12CC3CC(Cl)(CC(C1)c1ccccc13)C2)N[C@H]1CC[C@H](Oc2ccc(C(=O)O)cc2)CC1 [Compound 22, 4-[((1r,4r)-4-(3-(9-Chloro-5,6,8,9,10,11-hexahydro-7H-5,9:7,11-dimethanobenzo[9]annulen-7-yl)ureido)cyclohexyl)oxy]benzoic Acid]	14 ± 4%
0.4 nM	0.5 nM	0.5 nM	O=C(NC12CC3CC(F)(CC(C1)c1ccccc13)C2)N[C@H]1CC[C@H](Oc2ccc(C(=O)O)cc2)CC1 [Compound 23, 4-[((1r,4r)-4-(3-(9-Fluoro-5,6,8,9,10,11-hexahydro-7H-5,9:7,11-dimethanobenzo[9]annulen-7-yl)ureido)cyclohexyl)oxy]benzoic Acid]	–
